The inhibition is the percentage by which the read-out fell short of the control. In general, IC50 refers to the concentration needed to halve the response being measured. Low readings indicate higher potency, high ones lower potency.

The subject of experiment [1] is HCT-116. The experiment can be described thus: Antiproliferative activity against human HCT-116 cells assessed as inhibition rate at 20 uM incubated for 24 hrs by MTT assay relative to control. It is filed as functional. In general terms: Formazan colour is commonly taken as a measure of viable cells.
Experiment [2] relates to HCT-116. The experiment in a line: Antiproliferative activity against human HCT-116 cells incubated for 24 hrs by MTT assay. In kind it is functional, cell-based. To be noted: HCT-116, 24 h.
In experiment [3] the test system is RKO. The experiment can be described thus: Antiproliferative activity against human RKO cells incubated for 24 hrs by MTT assay. In kind it is functional, cell-based.

The structures appear in SMILES notation.

With `CC12c3ccc(F)cc3CCN1CCc1c2[nH]c2ccc(Cl)cc12` (stereo not drawn), in experiment [1], the inhibition at 20 µM worked out at 88.7%.

As for `CC12c3ccccc3CCN1CCc1c2[nH]c2ccc(F)cc12` (stereo not drawn), in experiment [1], the inhibition at 20 µM was found to be 7.8%.

On to `CC12c3ccc(Cl)cc3CC(=O)N1CCc1c2[nH]c2ccc(Cl)cc12` (stereo not drawn), for which the inhibition at 20 µM in experiment [1] was found to be 70.3%.

On to `CC12c3ccccc3CN1CCc1c2[nH]c2ccc(Cl)cc12` (stereo not drawn), for which the inhibition at 20 µM in experiment [1] came out at 43.8%.

Turning to `CC12c3ccccc3CCN1CCc1c2[nH]c2ccc(OCc3ccccc3)cc12` (stereo not drawn), the inhibition at 20 µM in experiment [1] amounted to 20.4%.

On to `C[C@@]12c3ccc(Cl)cc3CCN1CCc1c2[nH]c2ccc(Cl)cc12`, for which the inhibition at 20 µM in experiment [1] amounted to 84%.

Regarding `Cc1ccc2c(c1)C1(C)c3[nH]c4ccc(Cl)cc4c3CCN1C2` (stereo not drawn), the inhibition at 20 µM in experiment [1] was 64.6%.

In the case of `COc1ccc2[nH]c3c(c2c1)CCN1Cc2ccccc2C31C` (stereo not drawn), in experiment [1], the inhibition at 20 µM came out at 28.9%.

For `CC12c3ccccc3CC(=O)N1CCc1c2[nH]c2ccccc12` (stereo not drawn), the inhibition at 20 µM in experiment [1] is 65.2%.

On to `C[C@]12c3ccc(Cl)cc3CCN1CCc1c2[nH]c2ccc(Cl)cc12`, for which the inhibition at 20 µM in experiment [1] was found to be 81%.

As to `CC12c3cc(Cl)ccc3CCN1CCc1c2[nH]c2ccc(Cl)cc12` (stereo not drawn), the IC50 worked out at 6.77 µM in experiment [2] and 6.84 µM in experiment [3]. The inhibition at 20 µM in experiment [1] came out at 89.1%.

With `CC12c3cc(O)ccc3CN1CCc1c2[nH]c2ccc(Cl)cc12` (stereo not drawn), in experiment [1], the inhibition at 20 µM turned out to be 26.9%.

As to `CC12c3ccccc3CCN1CCc1c2[nH]c2ccc(Cl)cc12` (stereo not drawn), the inhibition at 20 µM in experiment [1] was determined as 83.7%.

`CC12c3cc(F)ccc3CCN1CCc1c2[nH]c2ccc(Cl)cc12` (stereo not drawn): the inhibition at 20 µM in experiment [1] came to 80.7%.

Turning to `CC12c3cc(F)ccc3CC(=O)N1CCc1c2[nH]c2ccc(Cl)cc12` (stereo not drawn), the inhibition at 20 µM in experiment [1] stood at 49%.

For `CC12c3ccc(Cl)cc3CCN1CCc1c2[nH]c2ccc(F)cc12` (stereo not drawn), the inhibition at 20 µM in experiment [1] came to 18.4%.

On to `Cc1ccc2[nH]c3c(c2c1)CCN1Cc2ccccc2C31C` (stereo not drawn), for which the inhibition at 20 µM in experiment [1] worked out at 43.9%.

With `COc1ccc2c(c1)C1(C)c3[nH]c4ccc(Cl)cc4c3CCN1CC2` (stereo not drawn), the inhibition at 20 µM in experiment [1] was 77%.

Regarding `Cc1ccc2c(c1)C1(C)c3[nH]c4ccc(Cl)cc4c3CCN1CC2` (stereo not drawn), the IC50 in experiment [2] came out at 7.52 µM; in experiment [3] it was 7.28 µM. Moreover, the inhibition at 20 µM in experiment [1] is 92.1%.

`COc1ccc2[nH]c3c(c2c1)CCN1CCc2cc(Cl)ccc2C31C` (stereo not drawn): in experiment [1], the inhibition at 20 µM was 66.7%.

For the compound `Cc1ccc2[nH]c3c(c2c1)CCN1CCc2ccccc2C31C` (stereo not drawn), the inhibition at 20 µM in experiment [1] was 59.5%.

As for `Cc1ccc2c(c1)C1(C)c3[nH]c4ccccc4c3CCN1C2` (stereo not drawn), the inhibition at 20 µM in experiment [1] came to 36%.

Regarding `Cc1ccc2c(c1)CCN1CCc3c([nH]c4ccc(Cl)cc34)C21C` (stereo not drawn), the half-inhibitory concentration (IC50) in experiment [2] amounted to 6.36 µM; in experiment [3], 6.48 µM. Further, in experiment [1], the inhibition at 20 µM came to 88.3%.

As to `CC12c3ccc(Cl)cc3CCN1CCc1c2[nH]c2ccc(Br)cc12` (stereo not drawn), the inhibition at 20 µM in experiment [1] was 3.6%.

For the compound `COc1ccc2[nH]c3c(c2c1)CCN1CCc2ccccc2C31C` (stereo not drawn), in experiment [1], the inhibition at 20 µM worked out at 10.9%.

In the case of `CC12c3ccccc3CCN1CCc1c2[nH]c2ccc(Br)cc12` (stereo not drawn), the inhibition at 20 µM in experiment [1] was found to be 3.6%.

Consider `Cc1ccc2[nH]c3c(c2c1)CCN1CCc2cc(Cl)ccc2C31C` (stereo not drawn), for which the inhibition at 20 µM in experiment [1] was 22.8%.

These data come from ChEMBL document CHEMBL5608195, “Identification and biological evaluation of fused tetrahydroisoquinoline derivatives as Wnt/β-catenin signaling inhibitors to suppress colorectal cancer” (Eur J Med Chem, 2024).
